Experimental data as given in PubChem BioAssay (NCI).
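Cells were grown in 96-well plates and exposed to each compound for 48 hours at five concentrations; endpoints were interpolated linearly between bracketing concentrations, or set to the highest concentration if not reached. GI50: concentration for 50% inhibition of growth. TGI is the concentration that stops growth completely.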

What was measured:
Assay in all cases: NCI-60 cell line screen, 48 h
BT-549 breast = tested on: BT-549 breast
NCI-H23 lung = tested on: NCI-H23 lung
SK-MEL-28 melanoma = tested on: SK-MEL-28 melanoma
UACC-257 melanoma = tested on: UACC-257 melanoma
SF-295 CNS = tested on: SF-295 CNS
CCRF-CEM leukemia = tested on: CCRF-CEM leukemia
DU-145 prostate = tested on: DU-145 prostate
TK-10 renal = tested on: TK-10 renal
SW-620 colon = tested on: SW-620 colon
MOLT-4 leukemia = tested on: MOLT-4 leukemia

| SMILES | GI50 (BT-549 breast) [µM] | TGI (BT-549 breast) [µM] | GI50 (NCI-H23 lung) [µM] | TGI (NCI-H23 lung) [µM] | GI50 (SK-MEL-28 melanoma) [µM] | TGI (SK-MEL-28 melanoma) [µM] | GI50 (UACC-257 melanoma) [µM] | TGI (UACC-257 melanoma) [µM] | GI50 (SF-295 CNS) [µM] | TGI (SF-295 CNS) [µM] | GI50 (CCRF-CEM leukemia) [µM] | TGI (CCRF-CEM leukemia) [µM] | GI50 (DU-145 prostate) [µM] | TGI (DU-145 prostate) [µM] | GI50 (TK-10 renal) [µM] | TGI (TK-10 renal) [µM] | GI50 (SW-620 colon) [µM] | TGI (SW-620 colon) [µM] | GI50 (MOLT-4 leukemia) [µM] | TGI (MOLT-4 leukemia) [µM] |
| --- | --- | --- | --- | --- | --- | --- | --- | --- | --- | --- | --- | --- | --- | --- | --- | --- | --- | --- | --- | --- |
| O=C(O)C1(Cc2cccc(Nc3nccs3)n2)CCC(Oc2cccc(Cl)c2F)CC1 (stereo not given) | 14.6 | 32.1 | 12.9 | 34.5 | 21.2 | > 65.2 | 31.6 | > 81.1 | 1.31 | 27.9 | 1.23 | > 55.1 | 14.4 | 32.3 | 18.8 | 61.9 | 4.31 | > 58.9 | 15.7 | 63.8 |
| COc1cnc2c(c1)C(=O)c1c-2n(CCCN2CCCC2)c(=O)c2cc(F)ccc12 | 0.85 | 6.43 | 0.331 | 2.4 | 2.49 | 14.7 | 0.396 | 2.2 | 0.202 | 0.755 | 0.199 | 2.82 | 0.211 | 1.34 | 0.46 | 2.13 | 0.199 | 2.27 | 0.0591 | 0.414 |
| N[C@@H]1CCCN(c2c(/C=C3\SC(=O)NC3=O)cccc2-c2ccccc2)C1 | 11.5 | 24.1 | 15.3 | 33.1 | 13.1 | 27.8 | 10.9 | 23.5 | 3.57 | 15.9 | 14 | 38.8 | 13.7 | 28.1 | 13.6 | 26.8 | 12.8 | 28.3 | 14.7 | 45.6 |
| CCCCC#CC#Cc1cccc(=O)o1 | 20.3 | 46.9 | 18.4 | 36.2 | 14.4 | 29 | 22.1 | 46.7 | 18.8 | 40 | 15.4 | > 100 | 21.9 | 50.8 | 14.3 | 28.3 | 18.7 | 53.1 | 4.77 | 32.1 |
| COc1ccc(-c2cc(-c3cc(OC)c(OC)c(OC)c3)c(C#N)c(N3CCOCC3)n2)cc1O | 19.9 | > 100 | 26.7 | > 100 | > 21.8 | > 94.8 | 38.4 | > 100 | 6.38 | > 73.8 | 6.46 | > 77.9 | 5.3 | > 100 | > 59.8 | > 100 | 3.87 | > 100 | 4.36 | > 100 |
| C#Cc1cccc(Nc2nc3ccc([N+](=O)[O-])cc3nc2Nc2cccc(C#C)c2)c1 | 0.294 | 1.2 | 0.265 | 0.911 | 0.354 | 1.17 | 0.207 | 0.602 | 0.172 | 0.416 | 0.209 | 1.03 | 0.367 | 1.47 |  |  | 0.291 | 1.09 | 0.247 | 1.02 |
| CCC1CCc2nc3sc(C(=O)Nc4ccccc4C)c(N)c3cc2C1 (stereo not given) | 0.558 | > 100 |  |  | 0.623 | > 100 | 0.486 | > 100 | 0.354 | > 100 | 0.331 | > 100 | 0.485 | > 100 | 0.833 | > 100 | 0.388 | > 100 | 0.661 | > 100 |
| O=C1c2c(O)cc(O)cc2OC(c2ccc(O)cc2O)C1O (stereo not given) |  | > 100 |  | > 100 | > 100 | > 100 | > 100 | > 100 |  | > 100 | > 100 | > 100 |  | > 100 |  | > 100 | > 100 | > 100 |  |  |
| Cc1ccc(S(=O)(=O)Cc2nc(-c3ccc(C(=O)NCc4cccnc4)cc3)oc2C)cc1 | 3.37 | > 100 |  |  | 15.5 | > 100 | > 100 | > 100 | 9.34 | > 100 | 0.0103 | > 100 | 0.0907 | > 100 | > 67.8 | > 100 | < 0.01 | > 100 | 0.595 | > 100 |
| O=[N+]([O-])c1ccc2ncccc2c1Cl | 3.29 | 9.57 | 6.96 | 29.8 | 6.29 | 20.8 | 7.62 | 29.3 |  |  | 2.54 | 29.8 | 3.4 | 10.2 | 6.38 | 46.1 | 0.627 | 16 | 3.07 | 12.2 |
